Data set [1] in a line: Mouse liver microsomal intrinsic clearance. The class given is in vitro ADME. Summed up:
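Compound (0.5 μM) incubated with liver microsomes (0.5 mg/mL, 50 mM potassium phosphate pH 7.4) and excess NADPH; samples quenched at 0–30 min and analysed by UPLC–MS/MS. Rate constant from exponential decay of compound/internal standard ratio; CLint scaled with 52.5 mg protein/g liver.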
On the technique in general: Liver microsomes are a subcellular fraction often used to study metabolism.

Data set [2] has as its system TbGSK3. Also noted: method as in PMID 23776181. The following applies: recombinant enzyme, previously established; cited from earlier work.
The nature of data set [3]: Mammalian cell counter screen (MRC-5). The following applies: human, MRC-5 fibroblasts; mean values; number of replicates in parentheses. The class given is cell-based, human. The method, then: (§1) Drug sensitivity assays with BSF T. b. brucei “single marker” S427 and human MRC-5 fibroblasts were conducted as previously described.[43]
Background: A counterscreen serves to expose hits that act by an unwanted route or on another target.

In data set [4] the test system is human MRC-5 fibroblasts. In words: Mammalian cell counter screen (MRC-5). Format: cell-based. The procedure:
as §1

Data set [5] deals with BSF T. b. brucei “single marker” S427. Nature of the data set: Drug sensitivity assay with bloodstream-form T. brucei. Format: cell-based. The following applies: Trypanosoma brucei; mean values; number of replicates in parentheses. The method, then: as §1
Data set [6] concerns T. brucei wild-type. Nature of the data set: Drug sensitivity, wild-type parental line. Format: cell-based, T. b. brucei. Particulars: Trypanosoma brucei; weighted mean of ≥3 independent experiments. The method, then: (§2) Drug sensitivity assays were carried out with BSF T. b. brucei “single marker” S427 or BSF T. b. brucei, Lister 427, MiTat 1.2, clone 221a 2T1 cells,[45] cells grown at 37 °C with 5% CO2 in an HMI-9T medium[46] as previously described.[47] 2T1 cells were initially maintained with 1 μg mL^–1 puromycin and 1 μg mL^–1 phleomycin prior to transfection or 2.5 μg mL^–1 hygromycin and 1 μg mL^–1 phleomycin after transfection. Induction of overexpression was achieved by the addition of 1 μg mL^–1 tetracycline to the culture medium.
(§3) Compound-resistant cell lines were generated by subculturing a clone of T. brucei in the continuous presence of 38. Starting at sublethal concentrations, drug concentrations in two independent cultures were increased in a stepwise manner, usually 2-fold. When parasites were able to survive and grow in concentrations of drugs equivalent to more than 10 times the established EC50 value, the resulting cell lines were cloned by limiting dilution in the presence of the compound. Two clones (RES I-II) were selected for further biological study. A standard alkaline lysis protocol was used to isolate genomic DNA from compound-resistant bloodstream T. brucei parasites (∼1 × 10^8). Whole genome sequencing was performed using a DNB-seq next-generation sequencing platform (BGI, Hong Kong). Sequencing reads (150 bp) were aligned to the T. brucei TREU927 genome (v39; tritrypDB) using Bowtie2[48] and Samtools[49] software. […] Samtools and BCFtools[52] (mpileup) were used to call SNP and indels compared with the wild-type starter clone, where the overall quality score (QUAL) was >100. Artemis[50] was used to analyze chromosome and gene copy number variation, as well as visualization of SNPs.

Data set [7] relates to Tb927.8.6290 overexpressing cell lines (A258P). In words: Drug sensitivity, line overexpressing Tb927.8.6290 A258P. Particulars: for EC50: Trypanosoma brucei. Format: cell-based, T. b. brucei. The procedure: as §2
(§4) The following primers were used to PCR amplify Tb927.8.6290 from genomic DNA isolated from wild-type and 38-resistant trypanosomes 5′-[…]-3′ (PacI site in bold) and 5′-[…]-3′ (BamHI site in bold). The PCR products (1272 bp) were then cloned into the pRPa plasmid.[53] The accuracy of the plasmid constructs was confirmed by in-house Sanger sequencing and then linearized with AscI prior to transfection. The linearized plasmids were introduced into 2T1 T. b. brucei cells following removal of puromycin from the media and selected with 2.5 μg mL^–1 hygromycin and 1 μg mL^–1 phleomycin. Two independent clones were selected for further studies.

The subject of data set [8] is T. brucei RES I. In words: Drug sensitivity, compound 38-resistant clone RES I. The class given is cell-based, T. b. brucei. The following applies: for EC50: Trypanosoma brucei, read-out: EC50, RES I; for fold resistance, RES I: relative to the parental wild-type, in brackets. The method, then: as §2, §3
Data set [9] deals with Tb927.8.6290 overexpressing cell lines (WT). In words: Drug sensitivity, line overexpressing Tb927.8.6290 WT. The class given is cell-based, T. b. brucei. The following applies: for EC50: Trypanosoma brucei. The procedure:
as §2, §4

In data set [10] the test system is T. brucei RES II. Nature of the data set: Drug sensitivity, compound 38-resistant clone RES II. The class given is cell-based, T. b. brucei. Particulars: for EC50: Trypanosoma brucei, read-out: EC50, RES II; for fold resistance, RES II: relative to the parental wild-type, in brackets. The procedure: as §2, §3
Data set [11] concerns Tb927.8.6290 overexpressing cell lines (V241F/A258V). In words: Drug sensitivity, line overexpressing Tb927.8.6290 V241F/A258V. The class given is cell-based, T. b. brucei. The following applies: for EC50: Trypanosoma brucei. The procedure:
as §2, §4

Read-outs that look alike come from different tables or passages of the source.

Here are results for 3 compounds from paper PMC10350920, “Development of a 2,4-Diaminothiazole Series for the Treatment of Human African Trypanosomiasis Highlights the Importance of Static–Cidal Screening of Analogues” (Journal of Medicinal Chemistry, 2023).

As usually defined, the IC50 is the concentration that gives 50% inhibition.

With `CC(C)(C)C(=O)c1sc(NC2CCCCC2)nc1N` [Compound 1, 1-(4-Amino-2-(cyclohexylamino)thiazol-5-yl)-2,2-dimethylpropan-1-one], in data set [1], the “CLint (mouse)” value amounted to 2.5 mL·min/g. In addition, the IC50 in data set [2] is 12000 nM. The results for the EC50 in data set [3] and in data set [5] were over 50000 nM and 470 nM, respectively. Moreover, the “selectivity over MRC-5 cell line” value in data set [4] is about 200 fold. Also, in data set [4] (selectivity index (EC50 MRC5/EC50 T. brucei)), the SI was over 100.

Take `Nc1nc(Nc2ccccc2)sc1C(=O)c1c(F)cccc1F` [Compound 69, reference compound]: the EC50 in [6] came out at 150 ± 3 nM; in data set [7] (read-out: EC50, A258P +TET), 1400 ± 35 nM; in data set [7] (read-out: EC50, A258P –TET), 200 ± 9 nM; in [8], 360 ± 16 nM; in data set [9] (read-out: EC50, WT +TET), 410 ± 19 nM; in [9] (read-out: EC50, WT –TET) it was 170 ± 4 nM. Also, the EC50 in data set [10] is 390 ± 28 nM; in [11] (read-out: EC50, V241F/A258V +TET) it was 1200 ± 51 nM; in [11] (read-out: EC50, V241F/A258V –TET), 180 ± 11 nM. Also, the “fold shift, A258P” value in data set [7] (−TET vs +TET EC50, in brackets) worked out at 7. In addition, the “fold resistance, RES I” value in [8] turned out to be 2. In addition, the “fold shift, WT” value in data set [9] (−TET vs +TET EC50, in brackets) was 2. Also, the “fold resistance, RES II” value in data set [10] is given as 3. The “fold shift, V241F/A258V” value in data set [11] (−TET vs +TET EC50, in brackets) was found to be 6.

Regarding `O=C1Nc2ccc3ncsc3c2/C1=C/Nc1ccc(S(=O)(=O)Nc2ccccn2)cc1` [GW8510], in data set [6], the EC50 was 120 ± 8 nM. In data set [8], the EC50 worked out at 65 ± 4 nM and the “fold resistance, RES I” value is reported as 1. Further, in data set [10], the EC50 worked out at 110 ± 4 nM and the “fold resistance, RES II” value came to 1.
